Laboratory results from patent US9695155B2, “Herbicidal substituted pyrimidinyloxy benzene compounds” (E. I. DU PONT DE NEMOURS AND COMPANY, priority 2013, dated 2017).

Test system: sandbur
Assay: Test E postemergence
Format: in vivo, Cenchrus echinatus
Text: Seeds of plant species selected from corn (Zea mays), soybean (Glycine max), velvetleaf (Abutilon theophrasti), lambsquarters (Chenopodium album), wild poinsettia (Euphorbia heterophylla), palmer pigweed (Amaranthus palmeri), waterhemp (common waterhemp, Amaranthus rudis), surinam grass (Brachiaria decumbens), large (Lg) crabgrass (Digitaria sanguinalis), Brazilian crabgrass (Digitaria horizontalis), fall panicum (Panicum dichotomiflorum), giant foxtail (Setaria faberii), green foxtail (Setaria viridis), goosegrass (Eleusine indica), johnsongrass (Sorghum halepense), ragweed (common ragweed, Ambrosia elatior), barnyardgrass (Echinochloa crus-galli), sandbur (southern sandbur, Cenchrus echinatus), arrowleaf sida (Sida rhombifolia), Italian ryegrass (Lolium multiflorum), dayflower (Virginia (VA) dayflower, Commelina virginica), field bindweed (Convolvulus arvensis), morningglory (Ipomoea coccinea), nightshade (eastern black nightshade, Solanum ptycanthum), kochia (Kochia scoparia), yellow nutsedge (Cyperus esculentus), cocklebur (common cocklebur, Xanthium strumarium), smartweed (ladysthumb smartweed, and hairy beggarticks (Bidens pilosa), were planted into a silt loam soil and treated preemergence with test chemicals formulated in a non-phytotoxic solvent mixture which included a surfactant.
At the same time, plants from these crop and weed species and also horseweed (Canada horseweed, Conyza canadensis), waterhemp_RES1, (ALS & Triazine resistant common waterhemp, Amaranthus rudis), and waterhemp_RES2, (ALS & HPPD resistant common waterhemp, Amaranthus rudis) were planted in pots containing Redi-Earth® planting medium (Scotts Company, 14111 Scottslawn Road, Marysville, Ohio 43041) comprising spaghnum peat moss, vermiculite, wetting agent and starter nutrients were treated with postemergence applications of test chemicals formulated in the same manner. Plants ranged in height from 2 to 18 cm for postemergence treatments (1- to 4-leaf stage). Treated plants and controls were maintained in a greenhouse for 14 to 21 days, after which time all species were compared to controls and visually evaluated. Plant response ratings, summarized in Table E, are based on a scale of 0 to 100 where 0 is no effect and 100 is complete control. A dash (-) response means no test result.

[1] = Postemergence, 31 g ai/ha, scale 0 to 100
[2] = Postemergence, 62 g ai/ha, scale 0 to 100
[3] = Postemergence, 125 g ai/ha, scale 0 to 100
[4] = postemergence, 16 g ai/ha, scale 0 to 100, 0 no effect, 100 complete control

Fc1cnc(Oc2ccccc2-n2cc(Br)cn2)nc1 [Compound 10, 2-[2-(4-bromo-1H-pyrazol-1-yl)phenoxy]-5-fluoropyrimidine]
pest or weed control at 31 g/ha (Cenchrus echinatus, post-emergence, Postemergence, 31 g ai/ha, scale 0 to 100, read-out: Plant response rating, Sandbur): 0% | pest or weed control at 62 g/ha (Cenchrus echinatus, post-emergence, Postemergence, 62 g ai/ha, scale 0 to 100, read-out: Plant response rating, Sandbur): 0% | pest or weed control at 125 g/ha (Cenchrus echinatus, post-emergence, Postemergence, 125 g ai/ha, scale 0 to 100, read-out: Plant response rating, Sandbur): 0% | pest or weed control at 250 g/ha (Cenchrus echinatus, post-emergence, Postemergence, 250 g ai/ha, scale 0 to 100, read-out: Plant response rating, Sandbur): 0% | pest or weed control at 16 g/ha (Cenchrus echinatus, post-emergence, postemergence, 16 g ai/ha, scale 0 to 100, 0 no effect, 100 complete control, read-out: Plant response rating, Sandbur): 0%

FC(F)(F)c1cnn(-c2ccccc2Oc2ncc(Cl)cn2)c1 [Compound 16]
Plant response rating, Sandbur [1]: 0 | Plant response rating, Sandbur [2]: 0 | Plant response rating, Sandbur [3]: 0 | Plant response rating, Sandbur (Postemergence, 250 g ai/ha, scale 0 to 100): 0 | Plant response rating, Sandbur [4]: 0

Clc1cnc(Oc2cccc(Br)c2-n2cc(Br)cn2)nc1 [Compound 65]
Plant response rating, Sandbur [1]: 0 | Plant response rating, Sandbur [2]: 0 | Plant response rating, Sandbur [3]: 0 | Plant response rating, Sandbur (postemergence, 8 g ai/ha, scale 0 to 100, 0 no effect, 100 complete control): 0 | Plant response rating, Sandbur [4]: 0
